Source: ChEMBL document CHEMBL1201862, “PubChem BioAssay data set” (2004)
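Five concentrations, 48 hours, 96-well plates. GI50 marks 50% less growth.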 Calls of active or inactive are those of the source. Rule as the data show it: active = GI50 up to about 1.1 µM and inactive = higher. Where a SMILES comes first, the peptide text is derived from it. The star is where a group is joined. Boc = CC(C)(C)OC(=O)*; OBn = c1ccc(CO*)cc1

Key:
Experiment in all cases: NCI tumour cell line growth inhibition, 48 h
LOX IMVI = tested on: LOX IMVI
MDA-MB-231 = tested on: MDA-MB-231
SF-539 = tested on: SF-539
UO-31 = tested on: UO-31
786-0 = tested on: 786-0
MDA-N = tested on: MDA-N
SK-MEL-5 = tested on: SK-MEL-5
NCI-H522 = tested on: NCI-H522
OVCAR-4 = tested on: OVCAR-4
ACHN = tested on: ACHN
HCT-15 = tested on: HCT-15
SK-MEL-28 = tested on: SK-MEL-28
DU-145 = tested on: DU-145
SNB-75 = tested on: SNB-75
HCT-116 = tested on: HCT-116
HOP-92 = tested on: HOP-92
TK-10 = tested on: TK-10
UACC-257 = tested on: UACC-257
MCF7 = tested on: MCF7
SR = tested on: SR

Structure (SMILES) | GI50 (LOX IMVI) | GI50 (MDA-MB-231) | GI50 (SF-539) | GI50 (UO-31) | GI50 (786-0) | GI50 (MDA-N) | GI50 (SK-MEL-5) | GI50 (NCI-H522) | GI50 (OVCAR-4) | GI50 (ACHN) | GI50 (HCT-15) | GI50 (SK-MEL-28) | GI50 (DU-145) | GI50 (SNB-75) | GI50 (HCT-116) | GI50 (HOP-92) | GI50 (TK-10) | GI50 (UACC-257) | GI50 (MCF7) | GI50 (SR)
C=C(C)C1CC2=C(O1)C(=O)c1cccc(O)c1C2=O (configuration not stated) | 4.26 µM (inactive) | 1.82 µM (inactive) | 0.671 µM (active) | 1.41 µM (inactive) | 9.12 µM (inactive) | 0.064 µM (active) | 0.144 µM (active) | 0.378 µM (active) | 0.327 µM (active) | 1.72 µM (inactive) | 2.05 µM | 1.7 µM (inactive) | 1.76 µM (inactive) | 2.29 µM (inactive) | 10.9 µM (inactive) | 0.604 µM (active) | 2.5 µM (inactive) | 0.271 µM (active) | 0.586 µM (active) | –
COC(=O)CN1Cc2cc(C)cc(c2O)CN(CC(=O)OC)Cc2cc(C)cc(c2O)CN(CC(=O)OC)Cc2cc(C)cc(c2O)C1 | > 65.8 µM (inactive) | > 36.8 µM (inactive) | > 80.2 µM (inactive) | > 44 µM (inactive) | > 100 µM (inactive) | > 87.9 µM (inactive) | > 57.5 µM (inactive) | > 100 µM (inactive) | > 100 µM (inactive) | > 47.1 µM (inactive) | > 66.4 µM | 99.8 µM (inactive) | > 41 µM (inactive) | > 33.4 µM (inactive) | 12.6 µM (inactive) | > 81.8 µM (inactive) | > 79.8 µM (inactive) | > 100 µM (inactive) | > 42 µM (inactive) | –
COc1cc2oc(=O)ccc2cc1C1OC(=O)C2OC21C (configuration not stated) | > 100 µM (inactive) | > 100 µM (inactive) | > 100 µM (inactive) | 64.9 µM (inactive) | > 100 µM (inactive) | > 100 µM (inactive) | > 100 µM (inactive) | – | > 100 µM (inactive) | > 100 µM (inactive) | > 100 µM | > 100 µM (inactive) | > 100 µM (inactive) | > 100 µM (inactive) | > 100 µM (inactive) | > 100 µM (inactive) | > 100 µM (inactive) | > 100 µM (inactive) | > 100 µM (inactive) | > 100 µM (inactive)
Nc1cccnc1NCC1(CO)CCCC1 | > 100 µM (inactive) | > 100 µM (inactive) | > 100 µM (inactive) | > 100 µM (inactive) | > 100 µM (inactive) | > 100 µM (inactive) | > 100 µM (inactive) | > 100 µM (inactive) | > 100 µM (inactive) | > 100 µM (inactive) | > 100 µM | > 100 µM (inactive) | > 100 µM (inactive) | > 100 µM (inactive) | > 100 µM (inactive) | – | > 100 µM (inactive) | > 100 µM (inactive) | > 100 µM (inactive) | > 100 µM (inactive)
COc1cc2c3c(c1)c1cc(OC)c(OC)cc1c[n+]3CC2 | 28.7 µM (inactive) | > 50 µM (inactive) | 6.12 µM (inactive) | > 100 µM (inactive) | 1.61 µM (inactive) | 24.8 µM (inactive) | 13.6 µM (inactive) | 0.927 µM (active) | 15 µM (inactive) | > 50 µM (inactive) | > 50 µM | 22.8 µM (inactive) | 31.8 µM (inactive) | – | 8.36 µM (inactive) | – | > 50 µM (inactive) | 18.1 µM (inactive) | 15.8 µM (inactive) | 21.8 µM (inactive)
C=C(CN)CO[Si](C)(C)C(C)(C)C | > 100 µM (inactive) | > 100 µM (inactive) | > 100 µM (inactive) | > 100 µM (inactive) | > 100 µM (inactive) | > 100 µM (inactive) | > 100 µM (inactive) | > 100 µM (inactive) | – | > 100 µM (inactive) | > 100 µM | > 100 µM (inactive) | > 100 µM (inactive) | 72.1 µM (inactive) | > 100 µM (inactive) | – | 77.1 µM (inactive) | > 100 µM (inactive) | > 100 µM (inactive) | > 100 µM (inactive)
COc1cc2c(cc1OC)C(=O)N(c1ccc(OCCN3CCCC3)cc1)C2 | > 100 µM (inactive) | > 100 µM (inactive) | > 100 µM (inactive) | – | > 100 µM (inactive) | > 100 µM (inactive) | > 100 µM (inactive) | > 100 µM (inactive) | > 100 µM (inactive) | > 100 µM (inactive) | > 100 µM | > 100 µM (inactive) | > 100 µM (inactive) | – | > 100 µM (inactive) | > 100 µM (inactive) | > 100 µM (inactive) | > 100 µM (inactive) | > 100 µM (inactive) | > 100 µM (inactive)
Nc1cccc(Nc2nc3ccccc3nc2NS(=O)(=O)c2ccccc2)c1 | 22.7 µM (inactive) | 14.8 µM (inactive) | 19.1 µM (inactive) | 16 µM (inactive) | 29 µM (inactive) | 33.4 µM (inactive) | 15.4 µM (inactive) | – | 15.6 µM (inactive) | 27.5 µM (inactive) | 25.6 µM | 18.3 µM (inactive) | 31.5 µM (inactive) | 36.2 µM (inactive) | 17.3 µM (inactive) | 23.3 µM (inactive) | 42 µM (inactive) | 31.3 µM (inactive) | 33.6 µM (inactive) | 20.3 µM (inactive)
[O-]/[N+](=N\c1ccccc1CO)c1ccccc1CO | > 100 µM (inactive) | > 100 µM (inactive) | > 100 µM (inactive) | > 100 µM (inactive) | > 100 µM (inactive) | > 100 µM (inactive) | > 100 µM (inactive) | > 100 µM (inactive) | > 100 µM (inactive) | – | > 100 µM | > 100 µM (inactive) | > 100 µM (inactive) | 84.7 µM (inactive) | > 100 µM (inactive) | – | > 100 µM (inactive) | > 100 µM (inactive) | > 100 µM (inactive) | > 100 µM (inactive)
C[C@@]12CCC3C1C=C1C(=O)c4cc(O)ccc4C(=O)[C@]1(O2)[C@@]3(C)C=O | 2.57 µM (inactive) | 8.71 µM (inactive) | 3.82 µM (inactive) | 4.9 µM (inactive) | 4.14 µM (inactive) | 3.48 µM (inactive) | 7.29 µM (inactive) | 2.94 µM (inactive) | 6.22 µM (inactive) | 7.11 µM (inactive) | 2.66 µM | – | 2.91 µM (inactive) | – | 3.52 µM (inactive) | 10.3 µM (inactive) | 11.6 µM (inactive) | 9.16 µM (inactive) | 3.52 µM (inactive) | 1.58 µM (inactive)
O=C(NCCNCCNC(=O)C(F)(F)F)C(F)(F)F | > 100 µM (inactive) | > 100 µM (inactive) | – | > 100 µM (inactive) | > 100 µM (inactive) | > 100 µM (inactive) | > 100 µM (inactive) | – | > 100 µM (inactive) | > 100 µM (inactive) | > 100 µM | > 100 µM (inactive) | > 100 µM (inactive) | – | > 100 µM (inactive) | – | > 100 µM (inactive) | > 100 µM (inactive) | > 100 µM (inactive) | > 100 µM (inactive)
O=C1NC(=O)[C@@H](OCC2CCCCC2)[C@@H]2OCC3OC(C(O)C3O)C12 (some centres not stated) | > 100 µM (inactive) | > 100 µM (inactive) | > 100 µM (inactive) | – | > 100 µM (inactive) | > 100 µM (inactive) | > 100 µM (inactive) | – | > 100 µM (inactive) | > 100 µM (inactive) | > 100 µM | > 100 µM (inactive) | > 100 µM (inactive) | – | > 100 µM (inactive) | – | > 100 µM (inactive) | > 100 µM (inactive) | > 100 µM (inactive) | > 100 µM (inactive)
COC(=O)C1=C(C(=O)OC)C2(C)CCC(=O)C1O2 (configuration not stated) | > 10 µM (inactive) | > 10 µM (inactive) | > 10 µM (inactive) | > 10 µM (inactive) | > 10 µM (inactive) | > 10 µM (inactive) | > 10 µM (inactive) | – | > 10 µM (inactive) | > 10 µM (inactive) | > 10 µM | > 10 µM (inactive) | > 10 µM (inactive) | 2.7 µM (inactive) | > 10 µM (inactive) | – | > 10 µM (inactive) | > 10 µM (inactive) | > 10 µM (inactive) | > 10 µM (inactive)
O=[Se](O)O | 2.76 µM (inactive) | 1 µM (active) | 0.912 µM (active) | 2.95 µM (inactive) | 2.47 µM (inactive) | 2.24 µM (inactive) | 2.33 µM (inactive) | 12.2 µM (inactive) | 7.06 µM (inactive) | 4 µM (inactive) | 3.15 µM | 3.27 µM (inactive) | 1.47 µM (inactive) | 1.49 µM (inactive) | 2.36 µM (inactive) | – | 6.67 µM (inactive) | 12.6 µM (inactive) | 9.75 µM (inactive) | 10 µM (inactive)
CC(C)CC(NC(=O)C(Cc1ccccc1)NC(=O)C(Cc1ccccc1)NC(=O)OC(C)(C)C)C(=O)OCc1ccccc1 (stereo not drawn) (Boc-Phe-Phe-Leu-OBn; configuration not given here) | > 100 µM (inactive) | > 100 µM (inactive) | > 100 µM (inactive) | > 100 µM (inactive) | > 100 µM (inactive) | > 100 µM (inactive) | > 100 µM (inactive) | > 100 µM (inactive) | – | – | > 100 µM | > 100 µM (inactive) | > 100 µM (inactive) | > 100 µM (inactive) | > 100 µM (inactive) | > 100 µM (inactive) | > 100 µM (inactive) | > 100 µM (inactive) | > 100 µM (inactive) | > 100 µM (inactive)
